Reference: ChEMBL document CHEMBL4190181 (Medchemcomm, 2016)

Key:
Rattus norvegicus = species on record: Rattus norvegicus; assay: Positive allosteric modulation of AMPAR in Sprague-Dawley rat primary culture of cerebellar neurons assessed as potentiation of kainate-induced current at 10 uM by whole-cell patch clamp electrophysiological method relative to control
[1] = Drug level in rat liver microsomes treated with (+/-)-7-Chloro-5-(3-furanyl)-3-methyl-3,4-dihydro-2H-1,2,4-benzothiadiazine 1,1-dioxide assessed as CYP450-mediated metabolite formation at 10 uM after 60 mins by LC-MS/MS analysis; type: ADME; details: 1 h
[2] = Half life of the compound in pH 7.4 buffer assessed as compound racemization; type: physicochemical

Activity (Rattus norvegicus) [%] | Drug metabolism [1] | half-life [2] [h] | Structure (SMILES)
2590 | Metabolite_Detected | – | C[C@@H]1Nc2c(-c3ccoc3)cc(Cl)cc2S(=O)(=O)N1
488 | Metabolite_Detected | – | C[C@H]1Nc2c(-c3ccoc3)cc(Cl)cc2S(=O)(=O)N1
8 | – | – | CC1Nc2ccc(Cl)cc2S(=O)(=O)N1 (configuration not stated)
1600 | – | 1 | CC1Nc2c(-c3ccoc3)cc(Cl)cc2S(=O)(=O)N1 (racemic)
